The results in this text go back to paper PMC7774954, “Interactomic affinity profiling by holdup assay: Acetylation and distal residues impact the PDZome-binding specificity of PTEN phosphatase” (PLoS ONE, 2020).

The test system of one assay is FRMPD3-1. The assay can be described thus: Holdup assay, FRMPD3-1. Type of assay: binding, human.
A further assay deals with APBA3-2. Briefly: Holdup assay, APBA3-2. The format is binding, human.
The next assay deals with T1, ARHGEF12-1 (Homo sapiens, UniProt Q9NZN5).
T1 sequence (Q9NZN5 72-151): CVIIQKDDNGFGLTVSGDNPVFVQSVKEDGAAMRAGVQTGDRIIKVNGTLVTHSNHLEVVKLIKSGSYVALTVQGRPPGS
Briefly: Holdup assay, ARHGEF12-1. The format is binding.

For a further assay, the target named is T2, MAGI1 PDZ 2 (Homo sapiens, UniProt Q96QZ7).
T2 construct: made in house; host or cells: E. coli
T2 sequence (Q96QZ7 472-554 limits assumed): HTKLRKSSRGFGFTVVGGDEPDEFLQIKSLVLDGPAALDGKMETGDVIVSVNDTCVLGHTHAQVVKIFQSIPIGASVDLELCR
The assay can be described thus: Holdup assay, MAGI1-2. The format is binding. As for the experimental part: The holdup assay was performed on a Tecan freedom Evo200 robot with 384-well plates in singlicate for the three 11-mer PTEN variants and the 13-mer PTEN peptide as described in [31, 32]. Briefly, prior to interaction assay, 2.5 μL of streptavidin resin was saturated in each well with 20 μL of biotinylated PBM peptides (42 μM) and then washed twice with an excess of free biotin, while the reference resin was incubated only with biotin. Right before the holdup experiment, the PDZ library was spiked with an internal standard of lysozyme. Then, the biotin- or PBM-saturated resin was incubated, each in a distinct well of a 384-well plate, with complete cell lysates diluted so that the concentration of the tag-PDZ present in the crude extract is adjusted at 4 μM. After a sufficient time to reach complex equilibrium (15 min.), a fast and mild filtration step is performed and the tag-PDZ concentrations were measured by capillary electrophoresis instrument (LabChip GXII, PerkinElmer, Massachusets, USA). Standard markers were used to convert migration time into molecular weight on the LabChip software and inappropriate molecular weight markers were corrected or excluded.
For filtered data, the BI was extracted with the following equation (Eq 1) that estimates the depleted fraction after superimposition of the sample and reference electropherograms: BI=Iref−Ilig/Iref (1) where Iref and Ilig are the intensities of the tag-PDZ peaks measured, for each PDZ domain/PBM peptide interaction pair, in the biotin reference and the PBM electropherograms, respectively.
BIs were transformed into dissociation constants (KD) using the following formula: KD=([PDZtot]−BI·[PDZtot])·([PBMtot]−BI·[PDZtot])/BI·[PDZtot] […] We systematically determined the KD constants for a subset of PDZ/PBM pairs by competitive FP. […] For each PBM, the average peptide concentration was calculated after outlier rejection based on the absolute distances from the median as compared to three times the standard deviation (3σ rule), with never more than 2 values rejected.

A further assay relates to DVL2-1. Briefly: Holdup assay, DVL2-1. Type of assay: binding, human.
Another assay concerns DLG3-3. Briefly: Holdup assay, DLG3-3. The format is binding, human.
The target in the next assay is DLG1-1 (Homo sapiens, UniProt Q12959). The assay can be described thus: Holdup assay, DLG1-1. Type of assay: binding.
For the next assay, the target named is T3, LIMK2-1 (Homo sapiens, UniProt P53671).
T3 sequence (P53671 152-239): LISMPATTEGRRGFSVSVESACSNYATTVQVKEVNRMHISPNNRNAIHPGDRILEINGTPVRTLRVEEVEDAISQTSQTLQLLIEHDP
The assay can be described thus: Holdup assay, LIMK2-1. The format is binding.

Each structure is given as a SMILES string. *1 amine or outer side, *2 acyl side, *3 side chain or, on linkers, in order; H or OH if unused. Where a SMILES comes first, the peptide text is derived from it. The star is where a group is joined. X1 = O=C(CCCC[C@@H]1SC[C@@H]2NC(=O)N[C@@H]21)NCCCOCCOCCOCCCN*; Suc = O=C(CCC(=O)[*:2])[*:1]

With `CC[C@H](C)[C@H](NC(=O)[C@H](CCC(N)=O)NC(=O)[C@@H](NC(=O)[C@H](Cc1c[nH]cn1)NC(=O)[C@H](CCC(N)=O)NC(=O)[C@H](CC(=O)O)NC(=O)[C@H](CCC(=O)O)NC(=O)[C@H](CC(=O)O)NC(=O)[C@H](Cc1ccccc1)NC(=O)[C@@H]1CCCN1C(=O)CCC(=O)NCCCOCCOCCOCCCNC(=O)CCCC[C@@H]1SC[C@@H]2NC(=O)N[C@@H]21)[C@@H](C)O)C(=O)N[C@H](C(=O)N[C@@H](CCCCN)C(=O)N[C@H](C(=O)O)C(C)C)[C@@H](C)O` [PTEN_13] ({X1-Suc}-PFDEDQHTQITKV-OH), the BI in the assay with FRMPD3-1 is listed as -0.096; with APBA3-2, 0.046; on ARHGEF12-1 it was 0.169; at MAGI1 PDZ 2 it was -0.017; in the assay with DVL2-1, -0.026; in the assay on DLG3-3, -0.054. The BI at DLG1-1 (DLG1-1) is listed as 0.011; on LIMK2-1, 0.152. At DLG1-1 (DLG1-1), this molecule yielded a LogKD of 3.826.
As usually defined, the Kd is the concentration at which binding is half-saturated. Low values mean tighter binding, high ones weaker binding. Take `CC[C@H](C)[C@H](NC(=O)[C@H](CCC(N)=O)NC(=O)[C@@H](NC(=O)[C@H](Cc1c[nH]cn1)NC(=O)[C@H](CCC(N)=O)NC(=O)[C@H](CC(=O)O)NC(=O)[C@H](CCC(=O)O)NC(=O)[C@H](CC(=O)O)NC(=O)CCC(=O)NCCCOCCOCCOCCCNC(=O)CCCC[C@@H]1SC[C@@H]2NC(=O)N[C@@H]21)[C@@H](C)O)C(=O)N[C@H](C(=O)N[C@@H](CCCNC(=N)N)C(=O)N[C@H](C(=O)O)C(C)C)[C@@H](C)O` [PTEN_KR] ({X1-Suc}-DEDQHTQITRV-OH): the BI in the assay on FRMPD3-1 was -0.082; in the assay with APBA3-2, 0.086; on ARHGEF12-1, 0.433; in the assay on DVL2-1, -0.027; in the assay with DLG3-3 it was 0.067; on DLG1-1 (DLG1-1), 0.215. At LIMK2-1, this molecule registered a BI of -0.042. Besides, the LogKD in the assay on FRMPD3-1, in the assay on APBA3-2, in the assay with DVL2-1, in the assay with DLG3-3 and on LIMK2-1 was 3.655 each time. Moreover, the Kd was 30.5 µM at ARHGEF12-1 and 88.1 µM on DLG1-1.
Regarding `CC[C@H](C)[C@H](NC(=O)[C@H](CCC(N)=O)NC(=O)[C@@H](NC(=O)[C@H](Cc1c[nH]cn1)NC(=O)[C@H](CCC(N)=O)NC(=O)[C@H](CC(=O)O)NC(=O)[C@H](CCC(=O)O)NC(=O)[C@H](CC(=O)O)NC(=O)CCC(=O)NCCCOCCOCCOCCCNC(=O)CCCC[C@@H]1SC[C@@H]2NC(=O)N[C@@H]21)[C@@H](C)O)C(=O)N[C@H](C(=O)N[C@@H](CCCCN)C(=O)N[C@H](C(=O)O)C(C)C)[C@@H](C)O` [PTEN_11], the BI in the assay on FRMPD3-1 is -0.078; in the assay on APBA3-2, 0.086; on ARHGEF12-1, 0.392; on MAGI1 PDZ 2 it was 0.077; in the assay on DVL2-1, -0.008; in the assay with DLG3-3 it was -0.011. In addition, the BI at DLG1-1 (DLG1-1) turned out to be 0.109; at LIMK2-1, 0.05. The LogKD in the assay on FRMPD3-1, in the assay on APBA3-2, in the assay with DVL2-1, with DLG3-3 and on LIMK2-1 was 3.519 in each case. Also, the Kd at ARHGEF12-1 was 50.3 µM.
For `CC[C@H](C)[C@H](NC(=O)[C@H](CCC(N)=O)NC(=O)[C@@H](NC(=O)[C@H](Cc1c[nH]cn1)NC(=O)[C@H](CCC(N)=O)NC(=O)[C@H](CC(=O)O)NC(=O)[C@H](CCC(=O)O)NC(=O)[C@H](CC(=O)O)NC(=O)CCC(=O)NCCCOCCOCCOCCCNC(=O)CCCC[C@@H]1SC[C@@H]2NC(=O)N[C@@H]21)[C@@H](C)O)C(=O)N[C@H](C(=O)N[C@@H](CCCCNC(C)=O)C(=O)N[C@H](C(=O)O)C(C)C)[C@@H](C)O` [PTEN_Ac], the BI in the assay on FRMPD3-1 is -0.12; in the assay with APBA3-2, 0.024; on ARHGEF12-1, 0.535; at MAGI1 PDZ 2, 0.101; in the assay on DLG3-3, -0.04; at DLG1-1 (DLG1-1), 0.168. The same molecule displayed a BI on LIMK2-1 of -0.087. Besides, the LogKD with FRMPD3-1, with APBA3-2, in the assay on DLG3-3 and at LIMK2-1 was 3.605 throughout. The same molecule showed a Kd on ARHGEF12-1 of 22.5 µM.
